Experimental data from patent US20210253595A1, “2-Aminopyrimidine Derivative and Preparation Method and Use Thereof” (Etern Biopharma (Shanghai) Co., Ltd., priority 2018, published 2021).

Legend:
[1] = test system: 2HG of fibrosarcoma cell line HT1080 expressing IDH1 mutant IDH1-R132C; assay: Inhibition of 2HG of fibrosarcoma cell line HT1080; type: cell-based; details: Homo sapiens, HT-1080; HT1080 cells, 48 hours with compound, 2HG in cell supernatant; read-out: HT1080 2HG inhibitory IC50
Procedure: In this experiment, the inhibitory activity of the compound of the disclosure on the concentration level of 2HG of the fibrosarcoma cell line HT1080 was determined by the following method.
The cells were digested with trypsin and inoculated into a 24 well cell culture plate with a density of 10000 cells/well. The cells were cultured in a 5% CO2 cell incubator at 37° C. After overnight culture, the test compound was added to the cells. The final concentration of DMSO was 0.1%, and DMSO was used as control. The plate was then placed in a cell incubator and cultured for 48 hours.
Detection of 2HG: 2-HG was measured by PicoProbe™ D-2-Hydroxyglutarate (D2HG) Assay Kit of BioVision. 500 uL cell supernatant was taken from each well and added to a 10 kD centrifuge column, 12000 g, and centrifuged for 10 minutes to remove the effect of enzyme activity. […] IC50 value was calculated by GraphPad Prism software.
The inhibition rate of the sample was obtained by the following formula: […]
IC50 value was calculated by GraphPad Prism software.

IDH1 R132H = IDH1 R132H (Homo sapiens, UniProt O75874, R132H); assay: Effect on IDH1 R132H enzyme activity (NADPH consumption, diaphorase/resazurin fluorescence); type: biochemical; details: 100 ng IDH1 R132H, α-KG 1 mM, NADPH 20 μM, 60 min preincubation
Sequence of IDH1 R132H (O75874 whole entry R132H): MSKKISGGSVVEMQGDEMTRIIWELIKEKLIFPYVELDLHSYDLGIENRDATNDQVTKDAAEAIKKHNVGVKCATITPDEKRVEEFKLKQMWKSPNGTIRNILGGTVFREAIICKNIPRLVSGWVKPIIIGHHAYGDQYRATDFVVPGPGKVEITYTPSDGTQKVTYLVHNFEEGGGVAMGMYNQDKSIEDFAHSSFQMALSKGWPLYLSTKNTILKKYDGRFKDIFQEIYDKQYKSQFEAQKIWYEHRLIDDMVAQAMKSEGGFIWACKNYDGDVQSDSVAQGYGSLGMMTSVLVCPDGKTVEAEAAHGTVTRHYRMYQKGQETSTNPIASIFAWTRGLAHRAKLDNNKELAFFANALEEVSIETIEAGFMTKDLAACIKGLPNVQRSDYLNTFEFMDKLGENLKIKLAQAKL
Procedure: (§1) Test method: The enzyme activity of IDH1 converting α-KG to 2HG was measured by the consumption of NADPH. After the enzymatic reaction finished, the amount of residual NADPH can be reflected by fluorescence signal generated by the addition of catalytically excessive diphhorase and reazurin.
50 μL mixed liquid of substrate α-KG and NADPH (final concentration of substrate α-KG was 1 mM, final concentration of NADPH was 20 μM), and the mixture was incubated in dark for 60 min at room temperature. Detection reaction: 50 μL 1×detection buffer diluted 0.01 unit diabase and 30 μM resazurin were added into each well, and the mixture was incubated in dark at room temperature for 10 min. […] IC50 value was calculated by GraphPad Prism software.

IDH1 R132C = IDH1 R132C (Homo sapiens, UniProt O75874, R132C); assay: Effect on IDH1 R132C enzyme activity (NADPH consumption, diaphorase/resazurin fluorescence); type: biochemical; details: 80 ng IDH1 R132C, α-KG 2 mM, NADPH 20 μM, 60 min preincubation
Sequence of IDH1 R132C (O75874 whole entry R132C): as the sequence (O75874 whole entry R132H) above, with H132C counted along it
Procedure: as §1
50 μL mixed liquid of substrate α-KG and NADPH (final concentration of substrate α-KG was 2 mM, final concentration of NADPH was 20 μM), and the plate was incubated in dark for 60 min at room temperature. Detection reaction: 50 μL 1×detection buffer diluted 0.01 unit diabase and 30 μM resazurin were added into each well, and the mixture was incubated in dark at room temperature for 10 min. […] IC50 value was calculated by GraphPad Prism software.

| SMILES | IC50 [1] | IC50 (IDH1 R132H) | IC50 (IDH1 R132C) |
| --- | --- | --- | --- |
| N#Cc1ccnc(N2C(=O)CC[C@H]2C(=O)N(c2cncc(F)c2)[C@H](C(=O)NC2CC(F)(F)C2)c2ccccc2Cl)c1 [AG120, reference compound] | 25 nM | – | – |
| C[C@H](Nc1nccc(N2C(=O)OC[C@@H]2[C@H](C)F)n1)c1ncn2c1COc1cc(Cl)ccc1-2 [Compound 1, (R)-3-(2-((S)-1-(7-chloro-4H-benzo[b]imidazo[1,5-d][1,4]oxazin-3-yl)ethylamino)pyrimidin-4-yl)-4-((S)-1-fluoroethyl)oxazolidin-2-one] | 60 nM | < 50 nM | < 50 nM |
| C[C@H](Nc1nccc(N2C(=O)OC[C@@H]2[C@H](C)F)n1)c1ncn2c1COc1cc(C(F)(F)F)ccc1-2 [Compound 2, (R)-4-((S)-1-fluoroethyl)-3-(2-(((S)-1-(7-trifluoromethyl-4H-benzo[b]imidazo[1,5-d][1,4]oxazin-3-yl)ethyl)amino)pyrimidin-4-yl)oxazolidin-2-one] | 12 nM | < 50 nM | < 50 nM |
| CC(C)[C@H]1COC(=O)N1c1ccnc(N[C@@H](C)c2ncn3c2CCc2cc(C(F)(F)F)ccc2-3)n1 [Compound 3, (S)-4-isopropyl-3-(2-(((S)-1-(7-trifluoromethyl-4,5-dihydroimidazo[1,5-a]quinolin-3-yl)ethyl)amino)pyrimidin-4-yl)oxazolidin-2-one] | 13 nM | < 50 nM | < 50 nM |
| C[C@H](Nc1ncc(F)c(N2C(=O)OC[C@@H]2[C@H](C)F)n1)c1ncn2c1CCc1cc(C(F)(F)F)ccc1-2 [Compound 6, (R)-3-(5-fluoro-2-(((S)-1-(7-trifluoromethyl-4,5-dihydroimidazo[1,5-a]quinolin-3-yl)ethyl)amino)pyrimidin-4-yl)-4-((S)-1-fluoroethyl)oxazolidin-2-one] | 20 nM | < 50 nM | < 50 nM |
| C[C@H](Nc1nc(Cl)cc(N2C(=O)OC[C@@H]2[C@H](C)F)n1)c1ncn2c1CCc1cc(C(F)(F)F)ccc1-2 [Compound 7, (R)-3-(6-chloro-2-(((S)-1-(7-trifluoromethyl-4,5-dihydroimidazo[1,5-a]quinolin-3-yl)ethyl)amino)pyrimidin-4-yl)-4-((S)-1-fluoroethyl)oxazolidin-2-one] | 35 nM | < 50 nM | < 50 nM |
| CC(C)[C@H]1COC(=O)N1c1ccnc(N[C@@H](C)c2ncn3c2CCCc2cc(C(F)(F)F)ccc2-3)n1 [Compound 9, (S)-4-isopropyl-3-(2-(((S)-1-(8-trifluoromethyl-5,6-dihydro-4H-benzo[f]imidazo[1,5-a]azepin-3-yl)ethyl)amino)pyrimidin-4-yl)oxazolidin-2-one] | 45 nM | 50 to 500 nM | < 50 nM |
| C[C@H](Nc1nccc(N2C(=O)OC[C@@H]2[C@H](C)F)n1)c1ncn2c1CCc1cc(F)ccc1-2 [Compound 11] | – | 50 to 500 nM | < 50 nM |
| CC(C)[C@H]1COC(=O)N1c1ccnc(N[C@@H](C)c2ncn3c2CSc2cc(C(F)(F)F)ccc2-3)n1 [Compound 12, (S)-4-isopropyl-3-(2-(((S)-1-(7-trifluoromethyl-4H-benzo[b]imidazo[1,5-d][1,4]thiazin-3-yl)ethyl)amino)pyrimidin-4-yl)oxazolidin-2-one] | 24 nM | < 50 nM | < 50 nM |
| C[C@H](Nc1nccc(N2C(=O)OC[C@@H]2[C@H](C)F)n1)c1ncn2c1CCCc1cc(C(F)(F)F)ccc1-2 [Compound 13, (R)-4-((S)-1-fluoroethyl)-3-(2-(((S)-1-(8-trifluoromethyl-5,6-dihydro-4H-benzo[f]imidazo[1,5-a]azepin-3-yl)ethyl)amino)pyrimidin-4-yl)oxazolidin-2-one] | 35 nM | < 50 nM | < 50 nM |
| CC1Cc2cc(C(F)(F)F)ccc2-n2cnc([C@H](C)Nc3nccc(N4C(=O)OC[C@@H]4[C@H](C)F)n3)c21 (stereo partly drawn) [Compound 14, (4R)-4-((S)-1-fluoroethyl)-3-(2-(((1S)-1-(4-methyl-7-trifluoromethyl-4,5-dihydroimidazo[1,5-a]quinolin-3-yl)ethyl)amino)pyrimidin-4-yl)oxazolidin-2-one] | – | 50 to 500 nM | 50 to 500 nM |
| CC1Oc2cc(C(F)(F)F)ccc2-n2cnc([C@H](C)Nc3nccc(N4C(=O)OC[C@@H]4[C@H](C)F)n3)c21 (stereo partly drawn) [Compound 15, (4R)-4-((S)-1-fluoroethyl)-3-(2-(((1S)-1-(4-methyl-7-trifluoromethyl-4H-benzo[b]imidazo[1,5-d][1,4]oxazin-3-yl)ethyl)amino)pyrimidin-4-yl)oxazolidin-2-one] | – | 50 to 500 nM | 50 to 500 nM |
| C[C@H](Nc1nccc(N2C(=O)OC[C@@H]2[C@H](C)F)n1)c1ncn2c1COc1cc(C#N)ccc1-2 [Compound 27, 3-((S)-1-((4-((R)-4-((S)-1-fluoroethyl)-2-oxyoxazolidin-3-yl)pyrimidin-2-yl)amino)ethyl)-4H-benzo[b]imidazo[1,5-d][1,4]oxazin-7-nitrile] | – | 50 to 500 nM | 50 to 500 nM |
| C[C@H](Nc1nccc(N2C(=O)OC[C@@H]2[C@H](C)F)n1)c1ncn2c1CCc1c(Cl)cccc1-2 [Compound 29, (R)-3-(2-(((S)-1-(6-chloro-4,5-dihydroimidazo[1,5-a]quinolin-3-yl)ethyl)amino)pyrimidin-4-yl)-4-((S)-1-fluoroethyl)oxazolidin-2-one] | – | < 50 nM | 50 to 500 nM |

Continued, values first:

| IC50 [1] | IC50 (IDH1 R132H) | IC50 (IDH1 R132C) | SMILES |
| --- | --- | --- | --- |
| 54 nM | < 50 nM | < 50 nM | C[C@H](Nc1nccc(N2C(=O)OC[C@@H]2[C@H](C)F)n1)c1ncn2c1CCc1cc(Cl)ccc1-2 [Compound 4, (R)-3-(2-(((S)-1-(7-chloro-4,5-dihydroimidazo[1,5-a]quinolin-3-yl)ethyl)amino)pyrimidin-4-yl)-4-((S)-1-fluoroethyl)oxazolidin-2-one] |
| 16 nM | < 50 nM | < 50 nM | C[C@H](Nc1nccc(N2C(=O)OC[C@@H]2[C@H](C)F)n1)c1ncn2c1CCc1cc(C(F)(F)F)ccc1-2 [Compound 5, (R)-4-((S)-1-fluoroethyl)-3-(2-(((S)-1-(7-trifluoromethyl-4,5-dihydroimidazo[1,5-a]quinolin-3-yl)ethyl)amino)pyrimidin-4-yl)oxazolidin-2-one] |
| 10 nM | < 50 nM | < 50 nM | C[C@H](Nc1nccc(N2C(=O)OC[C@@H]2[C@H](C)F)n1)c1ncn2c1sc1cc(C(F)(F)F)ccc12 [Compound 8, (R)-4-((S)-1-fluoroethyl)-3-(2-(((S)-1-(6-trifluoromethylbenzo[d]imidazo[5,1-b]thiazol-3-yl)ethyl)amino)pyrimidin-4-yl)oxazolidin-2-one] |
| – | 50 to 500 nM | 50 to 500 nM | CC1Cc2c([C@H](C)Nc3nccc(N4C(=O)OC[C@@H]4[C@H](C)F)n3)ncn2-c2ccc(C(F)(F)F)cc21 (stereo partly drawn) [Compound 10, (4R)-4-((S)-1-fluoroethyl)-3-(2-(((1S)-1-(5-methyl-7-trifluoromethyl-4,5-dihydroimidazo[1,5-a]quinolin-3-yl)ethyl)amino)pyrimidin-4-yl)oxazolidin-2-one] |
| – | > 500 nM | > 500 nM | C[C@H](Nc1nccc(N2CC3(CC3)OC2=O)n1)c1ncn2c1CCc1cc(C(F)(F)F)ccc1-2 [Compound 19, (S)-6-(2-((1-(7-trifluoromethyl-4,5-dihydroimidazo[1,5-a]quinolin-3-yl)ethyl)amino)pyrimidin-4-yl)-4-oxa-6-azaspiro[2.4]heptan-5-one] |
| – | < 50 nM | < 50 nM | C[C@H](Nc1nccc(N2C(=O)OC[C@@H]2[C@H](C)F)n1)c1ncn2c1COc1cc(F)ccc1-2 [Compound 24, (R)-3-(2-(((S)-1-(7-fluoro-4H-benzo[b]imidazo[1,5-d][1,4]oxazin-3-yl)ethyl)amino)pyrimidin-4-yl)-4-((S)-1-fluoroethyl)oxazolidin-2-one] |
| – | 50 to 500 nM | 50 to 500 nM | COc1ccc2c(c1)OCc1c([C@H](C)Nc3nccc(N4C(=O)OC[C@@H]4[C@H](C)F)n3)ncn1-2 [Compound 25, (R)-4-((S)-1-fluoroethyl)-3-(2-(((S)-1-(7-methoxy-4H-benzo[b]imidazo[1,5-d][1,4]oxazin-3-yl)ethyl)amino)pyrimidin-4-yl)oxazolidin-2-one] |
